For orientation: Km means the substrate concentration at which the rate is half of its maximum.

Results on one compound are retold here after patent publication USRE50957E1, “Molecular rheostat for cofactor balance” (The Regents of the University of California, priority 2016, dated 2026).

For test [1], the target named is G. stearothermophilus glyceraldehyde-3-phosphate dehydrogenase (GsGap) mutant mGapDH (mGap, gapDH M6), D34A/L35R/T36K relative to SEQ ID NO:6 (Geobacillus stearothermophilus, UniProt P00362, D34A/L35R/T36K). As to the kind of experiment: Kinetics and cofactor specificity of triple mutant mGap (mGapDH). The following applies: 50 mM tris pH 7.5, 340 nm. It is filed as biochemical, G. stearothermophilus ATCC12980. The protocol: Enzyme activity and optimization. All of the enzymes used in this work were assayed. The enzymes were assayed in 50 mM tris buffer pH 7.5, 5 mM MgCl, and 5 mM KCl which mirrors the final reaction conditions. The activity of NAD(P)H producing or consuming reactions were monitored at 340 nm. The activity of ATP consuming enzymes were monitored using a coupled assay with Zwf and NADP^+ at 340 nm.
Sequence of G. stearothermophilus glyceraldehyde-3-phosphate dehydrogenase (GsGap) mutant mGapDH (mGap, gapDH M6), D34A/L35R/T36K relative to SEQ ID NO:6 (P00362 whole entry D34A/L35R/T36K): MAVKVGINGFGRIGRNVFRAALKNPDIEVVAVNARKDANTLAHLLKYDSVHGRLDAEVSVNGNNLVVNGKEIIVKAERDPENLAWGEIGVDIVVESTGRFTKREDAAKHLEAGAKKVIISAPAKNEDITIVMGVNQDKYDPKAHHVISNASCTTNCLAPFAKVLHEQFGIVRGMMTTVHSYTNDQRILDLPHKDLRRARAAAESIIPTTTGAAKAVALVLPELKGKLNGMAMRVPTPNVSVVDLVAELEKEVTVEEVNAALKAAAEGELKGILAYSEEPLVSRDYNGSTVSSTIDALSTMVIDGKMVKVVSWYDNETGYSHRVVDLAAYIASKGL
To implement the “molecular rheostat” module, GapDH enzyme was engineered that efficiently uses NADP^+. […] Although the cofactor specificity of GsGap has adjusted before by sequence-based design, the mutant only slightly preferred NADP^+ over NAD^+. To more strongly flip the cofactor specificity of GsGap the crystal structure was examined and basic residues introduced into the loop region proximate to the 2′OH of NAD′ that may help stabilize binding of a 2′ phosphate in NADP^+. A series of mutations were made altering residues D34, L35, and T36 of SEQ ID NO:6. The kinetics and specificity of the best enzyme, a D34A/L35R/T36K triple mutant (herein referred to as mGap), were obtained.

In test [2] the target is G. stearothermophilus glyceraldehyde-3-phosphate dehydrogenase (GsGap, gapDH WT), wild type, SEQ ID NO:6 (Geobacillus stearothermophilus, UniProt P00362). As to the kind of experiment: Kinetics and cofactor specificity of wild type GsGap (gapDH WT). The conditions noted are these: cofactor, 50 mM tris pH 7.5, 340 nm.
Sequence of G. stearothermophilus glyceraldehyde-3-phosphate dehydrogenase (GsGap, gapDH WT), wild type, SEQ ID NO:6 (P00362 whole entry): as the sequence (P00362 whole entry D34A/L35R/T36K) above, with A34D, R35L, K36T counted along it

With `NC(=O)c1ccc[n+]([C@@H]2O[C@H](COP(=O)([O-])OP(=O)(O)OC[C@H]3O[C@@H](n4cnc5c(N)ncnc54)[C@H](O)[C@@H]3O)[C@@H](O)[C@H]2O)c1` [NAD+, nicotinamide adenine dinucleotide], the kcat in test [1] (cofactor varied) was 0.2 ± 0.04 µM/min/mg. In addition, the Km is 600 ± 400 µM in test [1] (cofactor) and 1500 ± 300 µM in test [2].
